Assay results from US8541588B2, “Sulfonamide derivatives” (Pfizer Limited, priority 2009, dated 2013).

Target: T1, Nav1.7 (or SCN9A) channel; HEK cells stably transfected with hSCN9A (Homo sapiens, UniProt Q15858)
T1 construct: expressed in transfected cells
Test: Nav1.7 block, PatchXpress 7000 automated whole-cell voltage clamp, estimated IC50 (EIC50)
Type: cell-based
Settings: estimated IC50; hSCN9A HEK cells, PatchXpress platform; Examples 283-814

T1 sequence (Q15858 whole entry): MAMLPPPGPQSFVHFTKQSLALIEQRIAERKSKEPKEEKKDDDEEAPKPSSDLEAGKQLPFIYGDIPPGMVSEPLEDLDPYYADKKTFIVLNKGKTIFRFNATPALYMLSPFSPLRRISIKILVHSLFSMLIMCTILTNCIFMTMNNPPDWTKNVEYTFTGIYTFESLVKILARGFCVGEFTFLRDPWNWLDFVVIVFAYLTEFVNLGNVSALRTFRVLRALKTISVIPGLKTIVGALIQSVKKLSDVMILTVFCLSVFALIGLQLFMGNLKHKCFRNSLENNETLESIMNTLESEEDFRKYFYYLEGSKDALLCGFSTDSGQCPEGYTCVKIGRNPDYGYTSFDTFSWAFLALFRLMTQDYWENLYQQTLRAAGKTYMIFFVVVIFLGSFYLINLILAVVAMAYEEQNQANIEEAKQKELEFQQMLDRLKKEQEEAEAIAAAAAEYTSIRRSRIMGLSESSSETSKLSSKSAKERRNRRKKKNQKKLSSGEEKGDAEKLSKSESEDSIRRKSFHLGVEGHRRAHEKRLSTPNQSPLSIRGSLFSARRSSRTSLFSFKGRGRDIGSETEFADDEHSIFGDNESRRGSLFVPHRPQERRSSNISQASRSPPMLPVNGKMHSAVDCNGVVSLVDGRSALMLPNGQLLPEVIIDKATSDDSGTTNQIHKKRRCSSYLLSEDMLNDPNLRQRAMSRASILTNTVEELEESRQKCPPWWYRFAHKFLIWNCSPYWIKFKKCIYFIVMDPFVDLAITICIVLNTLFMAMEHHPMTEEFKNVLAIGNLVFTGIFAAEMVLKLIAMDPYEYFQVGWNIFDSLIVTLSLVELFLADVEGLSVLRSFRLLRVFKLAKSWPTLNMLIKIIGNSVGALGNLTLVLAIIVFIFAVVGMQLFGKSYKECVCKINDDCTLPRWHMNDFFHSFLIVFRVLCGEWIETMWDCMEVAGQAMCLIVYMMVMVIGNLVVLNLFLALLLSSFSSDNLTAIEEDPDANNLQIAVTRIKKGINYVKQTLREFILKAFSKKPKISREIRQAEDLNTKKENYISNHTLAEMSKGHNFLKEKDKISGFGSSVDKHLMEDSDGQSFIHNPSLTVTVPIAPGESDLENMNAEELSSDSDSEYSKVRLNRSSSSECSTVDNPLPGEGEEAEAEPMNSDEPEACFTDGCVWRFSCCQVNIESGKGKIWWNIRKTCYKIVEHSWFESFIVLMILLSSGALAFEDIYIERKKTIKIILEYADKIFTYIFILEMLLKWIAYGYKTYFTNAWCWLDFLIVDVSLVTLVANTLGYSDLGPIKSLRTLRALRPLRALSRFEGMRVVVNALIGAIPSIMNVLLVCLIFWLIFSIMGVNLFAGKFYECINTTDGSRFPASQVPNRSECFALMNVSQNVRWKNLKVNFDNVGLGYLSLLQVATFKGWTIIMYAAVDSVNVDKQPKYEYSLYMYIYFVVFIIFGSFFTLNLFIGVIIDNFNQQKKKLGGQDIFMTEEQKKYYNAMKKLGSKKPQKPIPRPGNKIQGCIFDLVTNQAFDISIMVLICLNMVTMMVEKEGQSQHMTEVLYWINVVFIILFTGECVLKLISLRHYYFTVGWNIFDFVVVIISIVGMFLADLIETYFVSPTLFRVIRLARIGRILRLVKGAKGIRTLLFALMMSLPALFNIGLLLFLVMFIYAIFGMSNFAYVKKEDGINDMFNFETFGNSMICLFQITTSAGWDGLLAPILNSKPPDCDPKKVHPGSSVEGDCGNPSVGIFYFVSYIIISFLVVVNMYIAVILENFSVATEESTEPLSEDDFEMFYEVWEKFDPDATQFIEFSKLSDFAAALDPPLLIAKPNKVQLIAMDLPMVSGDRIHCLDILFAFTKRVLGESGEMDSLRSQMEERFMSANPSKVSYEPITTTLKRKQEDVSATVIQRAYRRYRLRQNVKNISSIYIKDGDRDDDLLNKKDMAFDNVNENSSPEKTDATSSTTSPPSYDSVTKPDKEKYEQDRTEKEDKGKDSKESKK

| SMILES | IC50 [nM] |
| --- | --- |
| O=S(=O)(Nc1ncc(Cl)s1)c1cc(F)c(Oc2ccc(F)cc2-c2cn[nH]c2)cc1F [Example 614, N-(5-chloro-1,3-thiazol-2-yl)-2,5-difluoro-4-[4-fluoro-2-(1H-pyrazol-4-yl)phenoxy]benzenesulfonamide] | 180 |
| Cn1nccc1-c1ccc(C#N)cc1Oc1cc(F)c(S(=O)(=O)Nc2ncc(Cl)s2)cc1F [Example 615, N-(5-chloro-1,3-thiazol-2-yl)-4-[5-cyano-2-(1-methyl-1H-pyrazol-5-yl)phenoxy]-2,5-difluorobenzenesulfonamide] | 2000 |
| N#Cc1cncc(-c2cc(C(F)(F)F)ccc2Oc2cc(F)c(S(=O)(=O)Nc3ncns3)cc2Cl)c1 [Example 616, 5-chloro-4-[2-(5-cyanopyridin-3-yl)-4-(trifluoromethyl)phenoxy]-2-fluoro-N-1,2,4-thiadiazol-5-ylbenzenesulfonamide] | 280 |
| Nc1cccc(-c2cc(F)ccc2Oc2cc(F)c(S(=O)(=O)Nc3ncns3)cc2Cl)n1 [Example 617, 4-[2-(6-aminopyridin-2-yl)-4-fluorophenoxy]-5-chloro-2-fluoro-N-1,2,4-thiadiazol-5-ylbenzenesulfonamide] | 30 |
| Nc1ncccc1-c1cc(Cl)ccc1Oc1cc(F)c(S(=O)(=O)Nc2ncns2)cc1Cl [Example 618, 4-[2-(2-aminopyridin-3-yl)-4-chlorophenoxy]-5-chloro-2-fluoro-N-1,2,4-thiadiazol-5-ylbenzenesulfonamide] | 11 |
| O=S(=O)(Nc1ncns1)c1cc(Cl)c(Oc2ccc(Cl)cc2C2CNC2)cc1F [Example 619, 4-(2-azetidin-3-yl-4-chlorophenoxy)-5-chloro-2-fluoro-N-1,2,4-thiadiazol-5-ylbenzenesulfonamide] | 45 |
| O=S(=O)(Nc1ncns1)c1cc(Cl)c(Oc2ccc(F)cc2-c2ccn[nH]2)cc1F [Example 620, 5-chloro-2-fluoro-4-[4-fluoro-2-(1H-pyrazol-5-yl)phenoxy]-N-1,2,4-thiadiazol-5-ylbenzenesulfonamide] | 4.8 |
| Cn1nccc1-c1cc(F)ccc1Oc1cc(F)c(S(=O)(=O)Nc2ncns2)cc1Cl [Example 621, 5-chloro-2-fluoro-4-(4-fluoro-2-(1-methyl-1H-pyrazol-5-yl)phenoxy)-N-(1,2,4-thiadiazol-5-yl)benzenesulfonamide] | 75 |
| Nc1nccc(-c2cc(F)ccc2Oc2cc(F)c(S(=O)(=O)Nc3ncc(Cl)s3)cc2F)n1 [Example 622, 4-[2-(2-aminopyrimidin-4-yl)-4-fluorophenoxy]-N-(5-chloro-1,3-thiazol-2-yl)-2,5-difluorobenzenesulfonamide] | >1000 |
| O=S(=O)(Nc1ccc(F)cn1)c1cc(Cl)c(Oc2ccc(Cl)cc2C2CCNCC2)cc1F [Example 623, 5-chloro-4-(4-chloro-2-piperidin-4-ylphenoxy)-2-fluoro-N-(5-fluoropyridin-2-yl)benzenesulfonamide] | 46 |
| Cn1nccc1-c1cc(F)ccc1Oc1cc(F)c(S(=O)(=O)Nc2cscn2)cc1Br [Example 625, 5-bromo-2-fluoro-4-[4-fluoro-2-(1-methyl-1H-pyrazol-5-yl)phenoxy]-N-1,3-thiazol-4-ylbenzenesulfonamide] | 18 |
| Cc1cc(S(=O)(=O)Nc2cscn2)c(F)cc1Oc1ccc(F)cc1-c1ccnn1C [Example 626, 2-fluoro-4-[4-fluoro-2-(1-methyl-1H-pyrazol-5-yl)phenoxy]-5-methyl-N-1,3-thiazol-4-ylbenzenesulfonamide] | 120 |

More lines, now with the values ahead:

| IC50 [nM] | SMILES |
| --- | --- |
| 160 | CCc1cc(S(=O)(=O)Nc2cscn2)c(F)cc1Oc1ccc(F)cc1-c1ccnn1C [Example 627, 5-ethyl-2-fluoro-4-[4-fluoro-2-(1-methyl-1H-pyrazol-5-yl)phenoxy]-N-1,3-thiazol-4-ylbenzenesulfonamide] |
| 1000 | Cc1cc(S(=O)(=O)Nc2cscn2)ccc1Oc1ccccc1-c1ccnn1C [Example 628, 3-methyl-4-[2-(1-methyl-1H-pyrazol-5-yl)phenoxy]-N-1,3-thiazol-4-ylbenzenesulfonamide] |
| 240 | Cn1nccc1-c1ccccc1Oc1ccc(S(=O)(=O)Nc2cscn2)cc1I [Example 629, 3-iodo-4-[2-(1-methyl-1H-pyrazol-5-yl)phenoxy]-N-1,3-thiazol-4-ylbenzenesulfonamide] |
| >1000 | Cc1scnc1NS(=O)(=O)c1cc(Cl)c(Oc2ccc(F)cc2-c2ccnn2C)cc1F [Example 630, 5-chloro-2-fluoro-4-(4-fluoro-2-(1-methyl-1H-pyrazol-5-yl)phenoxy)-N-(5-methylthiazol-4-yl)benzenesulfonamide] |
| 3300 | Cn1nccc1-c1cc(Cl)ccc1Oc1ncc(S(=O)(=O)Nc2cscn2)cc1Cl [Example 631, 5-chloro-6-(4-chloro-2-(1-methyl-1H-pyrazol-5-yl)phenoxy)-N-(thiazol-4-yl)pyridine-3-sulfonamide] |
| 100 | O=S(=O)(Nc1ncns1)c1cc(F)c(Oc2ccc(C(F)(F)F)cc2-c2cnccn2)cc1F [Example 632, 2,5-difluoro-4-[2-pyrazin-2-yl-4-(trifluoromethyl)phenoxy]-N-1,2,4-thiadiazol-5-ylbenzenesulfonamide] |
| 27 | O=S(=O)(Nc1ncns1)c1cc(F)c(Oc2ccc(C(F)(F)F)cc2C2CCOCC2)cc1F [Example 633, 2,5-difluoro-4-[2-(tetrahydro-2H-pyran-4-yl)-4-(trifluoromethyl)phenoxy]-N-1,2,4-thiadiazol-5-ylbenzenesulfonamide] |
| 11 | Nc1cc(-c2cc(F)ccc2Oc2cc(F)c(S(=O)(=O)Nc3ncns3)cc2F)ccn1 [Example 634, 4-[2-(2-aminopyridin-4-yl)-4-fluorophenoxy]-2,5-difluoro-N-1,2,4-thiadiazol-5-ylbenzenesulfonamide] |
| 6.3 | Cc1[nH]ncc1-c1cc(Cl)ccc1Oc1cc(F)c(S(=O)(=O)Nc2ncns2)cc1F [Example 635, 4-[4-chloro-2-(5-methyl-1H-pyrazol-4-yl)phenoxy]-2,5-difluoro-N-1,2,4-thiadiazol-5-ylbenzenesulfonamide] |
| 16 | O=S(=O)(Nc1ncns1)c1cc(F)c(Oc2ccc(Cl)cc2-c2ccn[nH]2)cc1F [Example 637, 4-[4-Chloro-2-(1H-pyrazol-5-yl)phenoxy]-2,5-difluoro-N-1,2,4-thiadiazol-5-ylbenzenesulfonamide] |
| 6900 | N#Cc1cc(S(=O)(=O)Nc2nccs2)ccc1Oc1cccc(-c2cccc(N)n2)c1 [Example 639, 4-[3-(6-aminopyridin-2-yl)phenoxy]-3-cyano-N-1,3-thiazol-2-ylbenzenesulfonamide] |
| 1000 | CC(=O)N1CC(c2cc(Cl)ccc2Oc2ccc(S(=O)(=O)Nc3nccs3)cc2C#N)C1 [Example 640, 4-[2-(1-acetylazetidin-3-yl)-4-chlorophenoxy]-3-cyano-N-1,3-thiazol-2-ylbenzenesulfonamide] |
| 1300 | N#Cc1cc(S(=O)(=O)Nc2nccs2)ccc1Oc1ccc(F)cc1-c1cnn(CC(F)(F)F)c1 [Example 641, 3-cyano-4-{4-fluoro-2-[1-(2,2,2-trifluoroethyl)-1H-pyrazol-4-yl]phenoxy}-N-1,3-thiazol-2-ylbenzenesulfonamide] |
| 2600 | N#Cc1cc(S(=O)(=O)Nc2nccs2)ccc1Oc1ccc(Cn2cccn2)cc1F [Example 642, 3-cyano-4-[2-fluoro-4-(1H-pyrazol-1-ylmethyl)phenoxy]-N-1,3-azol-2-ylbenzenesulfonamide] |
